In patent US20240174603A1 (Rappta Therapeutics Oy, priority 2021, published 2024):

What follows are compounds tested on LNCaP cells (assay: LNCaP cell viability assay (MTS)). Settings: Homo sapiens, LNCaP, 48 h, LNCaP cell line.
Format: cell-based
Method in brief: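 LNCaP cells (5000/well) treated 24 h after plating with compound at 1–80 µM for 48 h. Relative cell number read by MTS; GI50 from four-parameter variable-slope log(inhibitor) fit with bottom constrained to zero.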

| GI50 | SMILES |
| --- | --- |
| 58.5 µM | CN(C)CC(NS(=O)(=O)c1ccc(Cl)cc1F)c1ccc(Cl)c(Cl)c1 (stereo not drawn) [Compound 160, 4-chloro-N-(1-(3,4-dichlorophenyl)-2-(dimethylamino)ethyl)-2-fluorobenzenesulfonamide] |
| 38 µM | O=S(=O)(NCC1(c2cccs2)CCCC1)c1ccc(OC(F)(F)F)cc1 [Compound 61, N-((1-(thiophen-2-yl)cyclopentyl)methyl)-4-(trifluoromethoxy)benzenesulfonamide] |
| 73.4 µM | COc1cc(C2(CNS(=O)(=O)c3ccc(OC(F)(F)F)cc3)CCCC2)ccc1OC(F)F [Compound 33, N-((1-(4-(difluoromethoxy)-3-methoxyphenyl)cyclopentyl)methyl)-4-(trifluoromethoxy)benzenesulfonamide] |
| 23 µM | O=S(=O)(NCC1(c2ccc(Br)cc2Cl)CC1)c1ccc(OC(F)(F)F)cc1 [Compound 80, N-((1-(4-bromo-2-chlorophenyl)cyclopropyl)methyl)-4-(trifluoromethoxy)benzenesulfonamide] |
| 50 µM | CC(Cc1c(Cl)cccc1Cl)NS(=O)(=O)c1ccc(OC(F)(F)F)cc1 (stereo not drawn) [Compound 67, N-(1-(2,6-dichlorophenyl)propan-2-yl)-4-(trifluoromethoxy)benzenesulfonamide] |
| 44 µM | Cc1ccc(C2(CNS(=O)(=O)c3ccc(OC(F)(F)F)cc3)CC2)c(C)c1 [Compound 60, N-((1-(2,4-dimethylphenyl)cyclopropyl)methyl)-4-(trifluoromethoxy)benzenesulfonamide] |
| 22.8 µM | CN(C)CC(NS(=O)(=O)c1ccc(NC2CCC2)cc1)c1ccc(Cl)c(Cl)c1 (stereo not drawn) [Compound 252, 4-(cyclobutylamino)-N-(1-(3,4-dichlorophenyl)-2-(dimethylamino)ethyl)benzenesulfonamide] |
| 40.5 µM | Cc1cccc(S(=O)(=O)NC(CN(C)C)c2ccc(Cl)c(Cl)c2)c1 (stereo not drawn) [Compound 132, N-(1-(3,4-dichlorophenyl)-2-(dimethylamino)ethyl)-3-methylbenzenesulfonamide] |
| 57 µM | CN(C)CC(NS(=O)(=O)c1ccc(OC(F)(F)F)cc1)c1ccc(Cl)cc1 (stereo not drawn) [Compound 125, N-(1-(4-chlorophenyl)-2-(dimethylamino)ethyl)-4-(trifluoromethoxy)benzenesulfonamide] |
| 10.7 µM | O=S(=O)(NCC1(c2ccc(Cl)c(Cl)c2)CCNC1)c1ccc(OC(F)(F)F)cc1 (stereo not drawn) [Compound 253, N-((3-(3,4-dichlorophenyl)pyrrolidin-3-yl)methyl)-4-(trifluoromethoxy)benzenesulfonamide] |
| 60 µM | COC(=O)CC(NS(=O)(=O)c1ccc(OC(F)(F)F)cc1)C1CCCCC1 (stereo not drawn) [Compound 37, Methyl 3-cyclohexyl-3-((4-(trifluoromethoxy)phenyl)sulfonamido)propanoate] |
| 44.5 µM | CN(C)CC(NS(=O)(=O)c1ccc(OC(F)(F)F)cc1)c1cccc(Cl)c1 (stereo not drawn) [Compound 166, N-(1-(3-chlorophenyl)-2-(dimethylamino)ethyl)-4-(trifluoromethoxy)benzenesulfonamide] |
| 63.1 µM | O=S(=O)(NCC1(c2cccc(C(F)(F)F)c2)CCCC1)c1ccc(OC(F)(F)F)cc1 [Compound 262, 4-(trifluoromethoxy)-N-((1-(3-(trifluoromethyl)phenyl)cyclopentyl)methyl)benzenesulfonamide] |
| 14.4 µM | CN(C)CC(NS(=O)(=O)c1cccc(-c2ccccc2)c1)c1ccc(Cl)c(Cl)c1 (stereo not drawn) [Compound 144, N-(1-(3,4-dichlorophenyl)-2-(dimethylamino)ethyl)-[1,1′-biphenyl]-3-sulfonamide] |
| 33 µM | O=S(=O)(NC(c1ccc(F)cc1)C1CCCO1)c1ccc(OC(F)(F)F)cc1 (stereo not drawn) [Compound 101, N-((4-fluorophenyl)(tetrahydrofuran-2-yl)methyl)-4-(trifluoromethoxy)benzenesulfonamide] |
| 28 µM | CCn1nc(C(F)(F)F)cc1COCCNS(=O)(=O)c1ccc(OC(F)(F)F)cc1 [Compound 90, N-(2-((1-ethyl-3-(trifluoromethyl)-1H-pyrazol-5-yl)methoxy)ethyl)-4-(trifluoromethoxy)benzenesulfonamide] |
| 11.8 µM | CN(C)CC(NS(=O)(=O)c1ccc(Oc2ccccc2)cc1)c1ccc(Cl)cc1 (stereo not drawn) [Compound 190, N-(1-(4-chlorophenyl)-2-(dimethylamino)ethyl)-4-phenoxybenzenesulfonamide] |
| 69 µM | CCC(NS(=O)(=O)c1ccc(OC(F)(F)F)cc1)(C(=O)OC)c1ccccc1 (stereo not drawn) [Compound 107, Methyl 2-phenyl-2-((4-(trifluoromethoxy)phenyl)sulfonamido)butanoate] |

| GI50 | SMILES |
| --- | --- |
| 45.2 µM | CC(C)(NS(=O)(=O)c1ccc(OC(F)(F)F)cc1)C1(c2ccc(Cl)c(Cl)c2)CC1 [Compound 245, N-(2-(1-(3,4-dichlorophenyl)cyclopropyl)propan-2-yl)-4-(trifluoromethoxy)benzenesulfonamide] |
| 53.7 µM | O=S(=O)(NC(CN1CCOCC1)c1ccc(Cl)c(Cl)c1)c1ccc(OC(F)(F)F)cc1 (stereo not drawn) [Compound 169, N-(1-(3,4-dichlorophenyl)-2-morpholinoethyl)-4-(trifluoromethoxy)benzenesulfonamide] |
| 28 µM | O=S(=O)(NCC1CN(Cc2ccccc2)CC12CCC2)c1ccc(OC(F)(F)F)cc1 (stereo not drawn) [Compound 91, N-((6-benzyl-6-azaspiro[3.4]octan-8-yl)methyl)-4-(trifluoromethoxy)benzenesulfonamide] |
| 70.6 µM | COC(=O)c1cc(S(=O)(=O)NC(CN(C)C)c2ccc(Cl)c(Cl)c2)ccc1OC(F)(F)F (stereo not drawn) [Compound 226, methyl 5-(N-(1-(3,4-dichlorophenyl)-2-(dimethylamino)ethyl)sulfamoyl)-2-(trifluoromethoxy)benzoate] |
| 23.8 µM | CCCOc1ccc(S(=O)(=O)NC(CN(C)C)c2ccc(Cl)c(Cl)c2)cc1 (stereo not drawn) [Compound 267, N-(1-(3,4-dichlorophenyl)-2-(dimethylamino)ethyl)-4-propoxybenzenesulfonamide] |
| 11.2 µM | CN(C)CC(NS(=O)(=O)c1ccc(-c2ccccc2)cc1)c1ccc(Cl)c(Cl)c1 (stereo not drawn) [Compound 143, N-(1-(3,4-dichlorophenyl)-2-(dimethylamino)ethyl)-[1,1′-biphenyl]-4-sulfonamide] |
| 23 µM | O=S(=O)(NCc1ccccc1COC1CCCCC1)c1ccc(OC(F)(F)F)cc1 [Compound 59, N-(2-((cyclohexyloxy)methyl)benzyl)-4-(trifluoromethoxy)benzenesulfonamide] |
| 40 µM | O=S(=O)(NCC1(Cc2ccc(Br)cc2)CC1)c1ccc(OC(F)(F)F)cc1 [Compound 81, N-((1-(4-bromobenzyl)cyclopropyl)methyl)-4-(trifluoromethoxy)benzenesulfonamide] |
| 23 µM | CC1CCN(c2ccccc2CNS(=O)(=O)c2ccc(OC(F)(F)F)cc2)CC1 [Compound 87, N-(2-(4-methylpiperidin-1-yl)benzyl)-4-(trifluoromethoxy)benzenesulfonamide] |
| 66.5 µM | COC(=O)CC(NS(=O)(=O)c1ccc(OC(F)(F)F)cc1)c1cccc(Br)c1 (stereo not drawn) [Compound 38, Methyl 3-(3-bromophenyl)-3-((4-(trifluoromethoxy)phenyl)sulfonamido)propanoate] |
| 30.9 µM | CN(C)CC(NS(=O)(=O)/C=C/c1ccccc1)c1ccc(Cl)c(Cl)c1 (stereo not drawn) [Compound 174, (E)-N-(1-(3,4-dichlorophenyl)-2-(dimethylamino)ethyl)-2-phenylethene-1-sulfonamide] |
| 45.2 µM | Cc1ccc(C(CN(C)C)NS(=O)(=O)c2ccc(OC(F)(F)F)cc2)cc1 (stereo not drawn) [Compound 123, N-(2-(dimethylamino)-1-(p-tolyl)ethyl)-4-(trifluoromethoxy)benzenesulfonamide] |
| 43.1 µM | O=S(=O)(NC(CN1CCNCC1)c1ccc(F)cc1)c1ccc(OC(F)(F)F)cc1 (stereo not drawn) [Compound 264, N-(1-(4-fluorophenyl)-2-(piperazin-1-yl)ethyl)-4-(trifluoromethoxy)benzenesulfonamide] |
| 46.3 µM | CN(C)CC(NS(=O)(=O)c1ccc(OC(F)(F)F)cc1)c1cccc(C(F)(F)F)c1 (stereo not drawn) [Compound 120, N-(2-(dimethylamino)-1-(3-(trifluoromethyl)phenyl)ethyl)-4-(trifluoromethoxy)benzenesulfonamide] |
| 17 µM | O=S(=O)(NC(CC1CC1)c1cc(F)cc(Br)c1)c1ccc(OC(F)(F)F)cc1 (stereo not drawn) [Compound 72, N-(1-(3-bromo-5-fluorophenyl)-2-cyclopropylethyl)-4-(trifluoromethoxy)benzenesulfonamide] |
| 1.92 µM | CC(CN(C)C)NS(=O)(=O)c1ccc(OC(F)(F)F)c([N+](=O)[O-])c1 (stereo not drawn) [Compound 254, N-(1-(dimethylamino)propan-2-yl)-3-nitro-4-(trifluoromethoxy)benzenesulfonamide] |
| 63.8 µM | COc1ccc(S(=O)(=O)N2CCC(CNS(=O)(=O)c3ccc(OC(F)(F)F)cc3)CC2)cc1OC [Compound 1, N-((1-((3,4-dimethoxyphenyl)sulfonyl)piperidin-4-yl)methyl)-4-(trifluoromethoxy)benzenesulfonamide] |

| SMILES | GI50 |
| --- | --- |
| Cc1ccc(CNS(=O)(=O)c2ccc(OC(F)(F)F)cc2)c(OCC(C)C)c1 [Compound 74, N-(2-isobutoxy-4-methylbenzyl)-4-(trifluoromethoxy)benzenesulfonamide] | 60 µM |

Same assay, conditions: LNCaP cell line, 48 hours

| GI50 | SMILES |
| --- | --- |
| 12.5 µM | CN(C)CC(NS(=O)(=O)c1cccc(-c2ccccc2)c1)c1ccc(Cl)c(Cl)c1 (single isomer, unassigned) [Compound 198, N-(1-(3,4-dichlorophenyl)-2-(dimethylamino)ethyl)-[1,1′-biphenyl]-3-sulfonamide] |
| 49.6 µM | O=S(=O)(NC(CC1CC1)c1ccc(F)cc1Br)c1ccc(OC(F)(F)F)cc1 (single isomer, unassigned) [Compound 142b, N-(1-(2-bromo-4-fluorophenyl)-2-cyclopropylethyl)-4-(trifluoromethoxy)benzenesulfonamide] |
| 1.14 µM | CN(C)C[C@@H](NS(=O)(=O)c1ccc(OC(F)(F)F)c([N+](=O)[O-])c1)c1ccc(Cl)c(Cl)c1 (single isomer, unassigned) [Compound 204, N-(1-(3,4-dichlorophenyl)-2-(dimethylamino)ethyl)-3-nitro-4-(trifluoromethoxy)benzenesulfonamide] |
